Data from patent US8772499B2, “TRPV3 modulators” (AbbVie Inc., priority 2011, dated 2014).
pIC50: −log10 of the molar value. Where two headings read alike, the source gives them in different places.

Target: T1, human TRPV3 (Homo sapiens, UniProt Q8NET8)
T1 construct: expressed in transfected cells
T1 sequence (Q8NET8 1-790): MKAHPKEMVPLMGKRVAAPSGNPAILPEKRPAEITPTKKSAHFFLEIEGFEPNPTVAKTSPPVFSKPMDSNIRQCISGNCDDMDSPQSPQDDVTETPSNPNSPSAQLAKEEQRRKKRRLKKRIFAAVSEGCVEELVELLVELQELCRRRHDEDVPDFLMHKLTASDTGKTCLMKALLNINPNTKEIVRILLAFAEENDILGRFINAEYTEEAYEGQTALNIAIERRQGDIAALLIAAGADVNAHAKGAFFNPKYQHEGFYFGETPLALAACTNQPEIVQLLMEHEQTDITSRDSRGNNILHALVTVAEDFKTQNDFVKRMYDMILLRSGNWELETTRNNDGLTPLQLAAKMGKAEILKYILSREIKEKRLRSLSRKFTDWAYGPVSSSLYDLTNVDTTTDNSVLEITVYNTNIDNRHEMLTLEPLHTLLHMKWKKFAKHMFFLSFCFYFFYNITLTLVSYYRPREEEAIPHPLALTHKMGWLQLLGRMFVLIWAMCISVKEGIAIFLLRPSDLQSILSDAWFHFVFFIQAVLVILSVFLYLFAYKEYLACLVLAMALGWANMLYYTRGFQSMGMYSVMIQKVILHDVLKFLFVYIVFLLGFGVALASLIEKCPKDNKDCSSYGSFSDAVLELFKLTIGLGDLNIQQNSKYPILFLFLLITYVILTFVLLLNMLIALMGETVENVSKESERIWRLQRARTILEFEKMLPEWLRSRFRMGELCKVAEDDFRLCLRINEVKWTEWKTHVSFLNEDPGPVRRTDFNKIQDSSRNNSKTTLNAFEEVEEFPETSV
Assay: In vitro antagonism of recombinant human TRPV3 activation (FLIPR Tetra calcium assay)
Format: cell-based
Settings: HEK293 cells stably expressing human TRPV3, agonist 2-APB at 80 μM
Experimental: Test compounds were evaluated for ability to antagonize the activation of recombinant human TRPV3 using FLIPR® Tetra cellular screening. Specifically, on the day prior to the experiment recombinant HEK293 cells that stably express human TRPV3 were removed from tissue culture flasks and plated in growth medium at 20,000 cells/well into Poly-d-lysine coated black/clear 384-well Plate (Corning, 3845) using a Multidrop® dispenser (ThermoScientific, Waltham, Mass.). Prior to the start of the assay, the medium was removed by aspiration, and cells were loaded with 30 μL no-wash FLIPR® Calcium-4 dye (λEX=470-495 nm, λEM=515-575 nm; Molecular Devices, Sunnyvale, Calif.). The cells were then incubated for 90-120 minutes in the dark prior to addition of the test compound.
A double-addition protocol was used. The test compound (i.e., the TRPV3 antagonist) was added at the 10 second time point, followed by the addition of a TRPV3 agonist three minutes later. Each test compound evaluated was first dissolved in DMSO to prepare a 10 mM stock solution. A solution (5×) of the test compound was then prepared in DPBS (Dulbecco's Phosphate Buffered Saline) and 10 μl, of that solution was added to the cells at a delivery rate of 40 μL/sec. The TRPV3 agonist used to activate human TRPV3 expressed by the […] was 2-aminoethoxy-diphenyl borate (2-APB; Tocris Cookson, Ellisville, Mo.) at 80 μM. Final assay volume was 50 μl, Total length of an experimental run was 10 minutes.
Changes in fluorescence were measured over time using the FLIPR® instrument. The intensity of the fluorescence was captured and digitally transferred to an interfaced computer. The maximum response minus minimum response was calculated and expressed as the percentage of the maximum 2-APB response in the absence of antagonist. The concentration of 2-APB corresponds to its EC80.
Table 1 reports the IC50 values measured for the test compounds as human TRPV3 antagonists. […] Actual measured values are shown parenthetically after the reported range. In most cases, the values reported are average values from at least two runs (i.e., n≧2).

[1] = actual measured value shown parenthetically, in most cases average of at least two runs, read-out: IC50
[2] = reported range, read-out: IC50 (range class)

O=C1CC(c2ccc(OC(F)(F)F)cc2)([C@H](O)c2ccccn2)C1 (single isomer, unassigned) [Example 251]
pIC50 [1]: 5.71

CC1(O)CC(c2ccnc(C(F)(F)F)c2)(C(O)c2ccccn2)C1 (single isomer, unassigned) [Example 302]
pIC50 [1]: 6.02

OC(c1ccccn1)C1(c2cc(F)cc(C(F)(F)F)c2)CCC1 (centres unmarked) [Example 14, {1-[3-fluoro-5-(trifluoromethyl)phenyl]cyclobutyl}(pyridin-2-yl)methanol]
pIC50 [1]: < 4.70
pIC50 [2]: < 4.70

CS(=O)(=O)c1ccc(C2(C(O)c3ccccn3)CCC2)cc1 (centres unmarked) [Example 16, {1-[4-(methylsulfonyl)phenyl]cyclobutyl}(pyridin-2-yl)methanol]
pIC50 [1]: < 4.70
pIC50 [2]: < 4.70

OC(c1ccccn1)C1(c2ccc(-c3ccccc3)cc2)CCC1 (centres unmarked) [Example 22, [1-(1,1′-biphenyl-4-yl)cyclobutyl](pyridin-2-yl)methanol]
pIC50 [1]: < 4.70
pIC50 [2]: < 4.70

OC(c1ncccn1)C1(c2ccc(OC(F)(F)F)cc2)CCC1 (centres unmarked) [Example 31, pyrimidin-2-yl{1-[4-(trifluoromethoxy)phenyl]cyclobutyl}methanol]
pIC50 [1]: 5.51

OC(c1ncccn1)C1(c2ccccc2F)CCC1 (centres unmarked) [Example 32, [1-(2-fluorophenyl)cyclobutyl](pyrimidin-2-yl)methanol]
pIC50 [1]: < 4.70
pIC50 [2]: < 4.70

OC(c1ncccn1)C1(c2cccc(F)c2)CCC1 (centres unmarked) [Example 33, [1-(3-fluorophenyl)cyclobutyl](pyrimidin-2-yl)methanol]
pIC50 [1]: 5.07

OC(c1ncccn1)C1(c2ccc(F)cc2)CCC1 (centres unmarked) [Example 34, [1-(4-fluorophenyl)cyclobutyl](pyrimidin-2-yl)methanol]
pIC50 [1]: < 4.70
pIC50 [2]: < 4.70

OC(c1ncccn1)C1(c2ccc(F)c(F)c2)CCC1 (centres unmarked) [Example 35, [1-(3,4-difluorophenyl)cyclobutyl](pyrimidin-2-yl)methanol]
pIC50 [1]: 4.99

OC(c1ncccn1)C1(c2ccccc2OC(F)(F)F)CCC1 (centres unmarked) [Example 36, pyrimidin-2-yl{1-[2-(trifluoromethoxy)phenyl]cyclobutyl}methanol]
pIC50 [1]: 5.29

CC(c1cccc(Cl)c1)C1(C(O)c2ccccn2)CCC1 (centres unmarked) [Example 44, {1-[1-(3-chlorophenyl)ethyl]cyclobutyl}(pyridin-2-yl)methanol]
pIC50 [1]: 5.10

CC(c1cccc(F)c1)C1(C(O)c2ccccn2)CCC1 (centres unmarked) [Example 47, {1-[1-(3-fluorophenyl)ethyl]cyclobutyl}(pyridin-2-yl)methanol]
pIC50 [1]: 5.65

CC(c1ccccc1F)C1(C(O)c2ccccn2)CCC1 (centres unmarked) [Example 48, {1-[1-(2-fluorophenyl)ethyl]cyclobutyl}(pyridin-2-yl)methanol]
pIC50 [1]: 5.25

CC(c1ccccc1)C1(C(O)c2ccccn2)CCC1 (centres unmarked) [Example 51, [1-(1-phenylethyl)cyclobutyl](pyridin-2-yl)methanol]
pIC50 [1]: 5.08

CC(c1ccc(C(F)(F)F)cc1)C1(C(O)c2ccccn2)CCC1 (centres unmarked) [Example 53, pyridin-2-yl(1-{1-[4-(trifluoromethyl)phenyl]ethyl}cyclobutyl)methanol]
pIC50 [1]: 5.76

OC(c1ccccn1)C1(c2ccccc2)CCOCC1 (centres unmarked) [Example 60, (4-phenyltetrahydro-2H-pyran-4-yl)(pyridin-2-yl)methanol]
pIC50 [1]: 5.12

OC(c1ccccn1)C1(c2cccc(F)c2)CCOCC1 (centres unmarked) [Example 61, [4-(3-fluorophenyl)tetrahydro-2H-pyran-4-yl](pyridin-2-yl)methanol]
pIC50 [1]: 5.12

OC(c1ccccn1)C1(c2ccc(F)cc2)CCOCC1 (centres unmarked) [Example 62, [4-(4-fluorophenyl)tetrahydro-2H-pyran-4-yl](pyridin-2-yl)methanol]
pIC50 [1]: 4.93

OC(c1ccccn1)C1(c2ccc(F)c(F)c2)CCOCC1 (centres unmarked) [Example 63, [4-(3,4-difluorophenyl)tetrahydro-2H-pyran-4-yl](pyridin-2-yl)methanol]
pIC50 [1]: 5.14

OC(c1ccccn1)C1(c2ccc(Cl)cc2)CCOCC1 (centres unmarked) [Example 64, [4-(4-chlorophenyl)tetrahydro-2H-pyran-4-yl](pyridin-2-yl)methanol]
pIC50 [1]: 5.63

OC(c1ccccn1)C1(c2ccc(C(F)(F)F)cc2)CCOCC1 (centres unmarked) [Example 65, pyridin-2-yl{4-[4-(trifluoromethyl)phenyl]tetrahydro-2H-pyran-4-yl}-methanol]
pIC50 [1]: 5.65

OC(CC1(c2ccccc2)CCC1)c1ccccn1 (centres unmarked) [Example 68, 2-(1-phenylcyclobutyl)-1-(pyridin-2-yl)ethanol]
pIC50 [1]: 5.43

OC(CC1(c2ccc(Cl)cc2)CCC1)c1ccccn1 (centres unmarked) [Example 69, 2-[1-(4-chlorophenyl)cyclobutyl]-1-(pyridin-2-yl)ethanol]
pIC50 [1]: 5.30

OC(CC1(c2ccc(F)cc2)CCC1)c1ccccn1 (centres unmarked) [Example 70, 2-[1-(4-fluorophenyl)cyclobutyl]-1-(pyridin-2-yl)ethanol]
pIC50 [1]: 4.92

OC(CC1(c2cccc(F)c2)CCC1)c1ccccn1 (centres unmarked) [Example 71, 2-[1-(3-fluorophenyl)cyclobutyl]-1-(pyridin-2-yl)ethanol]
pIC50 [1]: 5.67

OC(CC1(c2cccc(Cl)c2)CCC1)c1ccccn1 (centres unmarked) [Example 72, 2-[1-(3-chlorophenyl)cyclobutyl]-1-(pyridin-2-yl)ethanol]
pIC50 [1]: 5.65

OC(CC1(c2ccc(Cl)c(Cl)c2)CCC1)c1ccccn1 (centres unmarked) [Example 73, 2-[1-(3,4-dichlorophenyl)cyclobutyl]-1-(pyridin-2-yl)ethanol]
pIC50 [1]: 5.71

OC(c1ccccn1)C1(c2ccc(C(F)(F)F)cc2)CCOC1 (centres unmarked) [Example 78, pyridin-2-yl{3-[4-(trifluoromethyl)phenyl]tetrahydrofuran-3-yl}methanol]
pIC50 [1]: 5.45

N#Cc1ccc(C2(C(O)c3ccccn3)CCOC2)cc1 (centres unmarked) [Example 79, 4-{3-[hydroxy(pyridin-2-yl)methyl]tetrahydrofuran-3-yl}benzonitrile]
pIC50 [1]: < 4.70
pIC50 [2]: < 4.70

OC(c1ccccn1)C1(c2cccc(OC(F)(F)F)c2)CCOC1 (centres unmarked) [Example 80, pyridin-2-yl{3-[3-(trifluoromethoxy)phenyl]tetrahydrofuran-3-yl}methanol]
pIC50 [1]: 5.75

N#Cc1cccc(C2(C(O)c3ccccn3)CCOC2)c1 (centres unmarked) [Example 81, 3-{3-[hydroxy(pyridin-2-yl)methyl]tetrahydrofuran-3-yl}benzonitrile]
pIC50 [1]: < 4.70
pIC50 [2]: < 4.70

COc1ccc(C2(C(O)c3ccccn3)CCOC2)cc1 (centres unmarked) [Example 83, [3-(4-methoxyphenyl)tetrahydrofuran-3-yl](pyridin-2-yl)methanol]
pIC50 [1]: < 4.70
pIC50 [2]: < 4.70

COc1ccc(C2(C(O)c3ccccn3)CCOC2)cc1OC (centres unmarked) [Example 84, [3-(3,4-dimethoxyphenyl)tetrahydrofuran-3-yl](pyridin-2-yl)methanol]
pIC50 [1]: < 4.70
pIC50 [2]: < 4.70

OC(c1ccccn1)C1(c2cccc(Cl)c2)COC1 (centres unmarked) [Example 86, [3-(3-chlorophenyl)oxetan-3-yl](pyridin-2-yl)methanol]
pIC50 [1]: 5.45

OC(C1CCCc2cccnc21)C1(c2ccccc2C(F)(F)F)CCC1 (stereo not drawn) [Example 196, (syn)-5,6,7,8-tetrahydroquinolin-8-yl{1-[2-(trifluoromethyl)phenyl]-cyclobutyl}methanol]
pIC50 [1]: < 4.70
pIC50 [2]: < 4.70

NC1CCCCC1C(O)C1(c2ccc(C(F)(F)F)cc2)CCC1 (centres unmarked) [Example 207, (2-aminocyclohexyl) {1-[4-(trifluoromethyl)phenyl]cyclobutyl}methanol]
pIC50 [1]: 5.40
